In patent US4734416A, “Pharmaceutically useful carbostyril derivatives” (Otsuka Pharmaceutical Co., Ltd., priority 1978, dated 1988):
Structures can show the parent of a compound that is named as a salt.

Experiments:
[1] = antihistamic effect, literature value; cited from earlier work
[2] = Analgetic activity (acetic acid writhing); assay type: in vivo, mouse (male, ddy-strain); conditions: Mus musculus, read-out: ED50 (analgetic activity)
Protocol: Male mice of ddy-strain having 15-23 g of body weight are used. One test group consists of 10 mice. The compound to be tested is administered orally by procedures similar to the method mentioned in (II). Fifty minutes after the administration, 0.1 ml of 0.6% acetic acid aqueous solution/10 g body weight is injected intraperitoneally. In case of the mice administered orally with the reference compound (Haloperidol), the injection is made 110 minutes after the administration. The number of writhings shown after 10 minutes is counted for 10 minutes and the ED50 value of respective compounds is calculated in comparison with the number of writhings shown by control group. [Reference: R. Koster, M. Anderson and E. I. Debeer: Fed. Proc., 18, 412, (1959)]

[3] = molecular target: T1, enucleated ileum of a guinea pig (Cavia porcellus, UniProt P31389); experiment: Antihistamine activity test in vitro (enucleated guinea pig ileum, histamine retraction, pA2 by Van Rossam method); conditions: 10^-6 g/ml test compound, 5 minutes before histamine, 36° C.
T1 construct: the tissue of ileum is cut to a length of 2.5 to 3.0 cm and suspended in an organ bath; from tissue; host or cells: isolated ileum from the ileocecal region of male guinea pig
Protocol: As to the test method for determining antihistamine activity of a compound in vitro, a method of using an enucleated ileum of a guinea pig is generally accepted.
A male guinea pig having 300 to 500 g body weight is killed by blood letting. An ileum having a length of 15 cm being enculeated from the ileocecal region is dipped into Tyrode's solution (which is prepared from […], 0.2 g of KCl, 0.2 g of CaCl2, 1.0 g of glucose, 1.0 g of NaHCO3, 0.065 g of NaHPO4.2H2 O and 0.2135 g of MgCl2.6H2 O to make 1000 ml in total volume by adding water). Then the tissue of ileum is cut to a length of 2.5 to 3.0 cm and suspended in an organ bath filled with 30 ml of Tyrode's solution. The organ bath is kept at a temperature of 36° C. and a mixed gas consisting of 5% of CO2 and 95% of O2 is blown into the bath. 10 Minutes after the blowing, 10^-6 M of histamine is added to the bath to examine the sensitivity of the tissue and a reaction curve (control) with respect to the dosage of histamine is obtained. After the dosage of histamine-reaction curve (control) becomes constant, 10^-6 g/ml of a compound to be tested is added to the bath and further histamine is added 5 minutes later to obtain a dosage-reaction curve. Retraction of the ileum is recorded on a pen-recorder through an isotonic transducer [TD-112S manufactured by Nihon Koden]. Antihistamine activity of the test compound is determined as pA2 value by the "Van Rossam" method [J. M. Van Rossam; Arch. Inst. Pharmacodyn., 143, 299 (1963)] wherein the maximum retraction of ileum caused by histamine shown in the control curve is 100%.

[4] = Hexabarbital sleep increasing activity (righting reflex); assay type: in vivo, mouse (male, ddy-strain); conditions: oral, Hexabarbital Na 70 mg/kg i.p.
Protocol: Male mice of ddy-strain having 20 to 25 g body weight are starved for 24 hours. One test group consists of 10 mice. An aqueous Gummi Arabicum suspension of test compound (0.05 g of test compound and 1 g of Gummi Arabicum/100 ml of physiological NaCl solution) is administered orally at the dosage mentioned in the Table 4. One hour after the administration 0.7% of Hexabarbitol.Na-salt is intraperitonerally administered at the dosage of 70 mg/kg body weight. The time between the introduction of sleep to waking is measured by righting reflex as the index. [Reference: A. M. Hjort, De E. J. Beer and D. W. Fassett; J. Pharmac., Exptl.

in vivo = conditions: mouse
Protocol: Mice of ddy-strain having 20-22 g of body weight are used. One test group consists of 10 mice.
Oral administration: Compound to be tested is suspended in 1% Gummi Arabicum physiological NaCl aqueous solution.
Intravenuous administration: Compound to be tested is dissolved in 50% propyleneglycol aqueous solution.

[5] = Halothane anesthesia increasing activity (righting reflex); assay type: in vivo, mouse (male, ddy-strain); conditions: oral; for Time (minutes) between introduction of anesthesia and waking: 8 mg/kg, 1 hour before 4% Halothane
Protocol: Male mice of ddy-strain having about 20 g body weight are used. One test group consists of 10 mice. An aqueous Gummi Arabicum suspension of test compound (80 mg of a compound to be tested and 1 g of Gummi Arabicum/100 ml of physiological NaCl solution) is administered orally to each mouse at the dosage of 8 mg of test compound/kg body. One hour after the administration, each mouse is placed in a gas respiration chamber (13×13×24 cm) and oxygen gas containing 4% of Halothane [2-bromo-2-chloro-1,1,1-trifluoroethane] is blown into the chamber at the velocity of 2 l/min for 3 minutes. A mouse anaesthetized is taken out from the chamber and the time between the introduction of anesthesia to waking is measured by righting reflex as the index. To mice of the control group, 1% Gummi Arabicum aqueous physiological solution is orally administered at the dosage of 0.1 ml/10 g body. [Reference: M. J. Turnbull and J. W. Watkins: Br. J. Pharmac., 58, 27-35 (1976)]
Same procedures as mentioned in (II)-(A) are employed, except that the amount of test compound to be orally administered is changed in 4 steps at the dosage of 0.5 mg/kg, 1 mg/kg, 2 mg/kg and 4 mg/kg respectively to measure the relationship between the dosage and degree of strength of anesthesia increasing activity.

[6] = Activity for inhibiting fighting behavior of mouse isolated singly for a long period of time; assay type: in vivo, mouse (male, ddy-strain); conditions: positive if fighting no longer than 5 seconds in a minute, range in parentheses, read-out: ED50 (inhibition of fighting behavior)
Protocol: Individual male mice of ddy-strain having 15 to 20 g of body weight are breeded separately in respective cages for 1 month. One test group consists of 10 pairs of mice. The pairs of mice are selected so that when one mouse is taken into the home cage of another, the two mice fight together continuously for over 30 seconds. ED50 values are calculated by administering the respective test compounds to each test groups of mice. Activity for inhibiting fighting behavior of the test compound is determined as positive in case the administered mice only continue the fighting for no longer than 5 seconds in a minute. When the mice continue the fighting over 5 seconds they are forced to separate for the purpose of reducing the number of injured mice. [Reference: C. Y. Yen, R. L. Stanger and N. Millman: Arch. Int. Pharmacodyn., 123, 179 (1959)]

[7] = 50 min, oral, 50 minutes before acetic acid i.p., range in parentheses

T1 sequence (P31389 whole entry): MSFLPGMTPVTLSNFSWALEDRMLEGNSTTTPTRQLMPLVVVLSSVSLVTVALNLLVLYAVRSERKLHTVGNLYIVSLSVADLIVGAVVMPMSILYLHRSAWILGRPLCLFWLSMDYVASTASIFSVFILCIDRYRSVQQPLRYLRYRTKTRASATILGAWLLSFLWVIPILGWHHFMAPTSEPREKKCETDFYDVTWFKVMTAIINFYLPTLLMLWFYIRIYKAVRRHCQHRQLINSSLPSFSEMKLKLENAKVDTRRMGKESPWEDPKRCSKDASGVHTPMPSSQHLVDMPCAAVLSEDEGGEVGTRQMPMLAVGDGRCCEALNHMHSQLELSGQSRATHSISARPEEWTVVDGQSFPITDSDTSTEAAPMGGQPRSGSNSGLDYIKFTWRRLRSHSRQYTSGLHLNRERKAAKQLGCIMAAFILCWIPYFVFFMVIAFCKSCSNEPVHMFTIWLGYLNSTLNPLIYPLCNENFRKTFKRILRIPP

SMILES	pA2 [1]	ED50 [2, 7] [mg/kg]	Kb [3] [nM]	Sleep time (min.) [Mean ± SD] ([4]; 0.5 mg/kg) [min]	Sleep time (min.) [Mean ± SD] ([4]; 1.0 mg/kg) [min]	Sleep time (min.) [Mean ± SD] ([4]; 2.0 mg/kg) [min]	Sleep time (min.) [Mean ± SD] ([4]; 4 mg/kg) [min]	Sleep time (min.) [Mean ± SD] ([4]; 8 mg/kg) [min]	LD50 (in vivo; iv, female mice) [mg/kg]	LD50 (in vivo; iv, male mice) [mg/kg]	LD50 (in vivo; po, female mice) [mg/kg]	LD50 (in vivo; po, male mice) [mg/kg]	Anesthesia increasing activity ([5]; 0.5 mg/kg) [min]	Anesthesia increasing activity ([5]; 1 mg/kg) [min]	Anesthesia increasing activity ([5]; 2 mg/kg) [min]	Anesthesia increasing activity ([5]; 4 mg/kg) [min]	Time (minutes) between introduction of anesthesia and waking [5] [min]	ED50 [6] [mg/kg]	ED50 ([2]; po, 110 min) [mg/kg]	Sleep time (min.) [Mean ± SD] ([4]; 16 mg/kg) [min]
CC(C)(C)NCC(O)COc1cccc2c1CCC(=O)N2 (stereo not shown) [5-(3-tert-butylamino-2-hydroxy)propoxy-3,4-dihydrocarbostyril hydrochloride]	5.02																			
O=C1CCc2ccc(OCCCN3CCN(c4ccccc4)CC3)cc2N1 [Compound 6, 7-[3-(4-Phenylpiperazinyl)propoxy]-3,4-dihydrocarbostyril dihydrochloride]		2.31	0.457	43.76 ± 6.09	51.24 ± 11.75	54.11 ± 7.80	65.13 ± 11.59	85.83 ± 12.24	250	240	890	920	8.2 ± 2.6	10.3 ± 3.3	12.1 ± 4.2	16.6 ± 5.1	16.8 ± 6.2	0.7		
O=C1CCc2c(cccc2OCCCN2CCCN(c3ccccc3)CC2)N1 [Compound 31, 5-[3-(4-Phenylhomopiperazinyl)propoxy]-3,4-dihydrocarbostyril]		1.92	0.263						248	256	923	870					8.2 ± 3.9			
O=c1ccc2ccc(OCCCN3CCN(c4ccccc4)CC3)cc2[nH]1 [Compound 37, 7-[3-(4-Phenylpiperazinyl)propoxy]carbostyril]		1.52	0.295														13.1 ± 6.0	0.78		
O=C(CCCN1CCC(O)(c2ccc(Cl)cc2)CC1)c1ccc(F)cc1 [Haloperidol, reference compound]							43.01 ± 19.22	46.83 ± 13.94					5.3 ± 2.9	5.1 ± 2.5	9.3 ± 3.1	10.2 ± 3.7			2.31	66.81 ± 14.32
